ChEMBL document CHEMBL6134901 (J Med Chem, 2025)
pIC50, pKd: −log10 of the molar value. Converted amounts (≈) assume the structure as drawn. The source made the active and inactive calls. The calls are words filed in the database; no cut-off is given here.

How the values were obtained:
Clostridioides difficile [1] = experiment: Antibacterial activity against metronidazole-resistant Clostridium difficile […] clinical isolate; assay type: functional
Clostridioides difficile [2] = experiment: Antibacterial activity against Clostridium difficile RMA23828; assay type: functional
Bacteroides fragilis = experiment: Antibacterial activity against Bacteroides fragilis HM-709; assay type: functional
Veillonella = experiment: Antibacterial activity against Veillonella sp. HM-49; assay type: functional
Fusobacterium nucleatum = experiment: Antibacterial activity against methicillin/oxacillin/tetracycline-resistant mecA-positive Fusobacterium nucleatum HM-992; assay type: functional
[3] = tested on: Limosilactobacillus reuteri; experiment: Antibacterial activity against vancomycin-susceptible Lactobacillus reuteri HM-102 clinical isolate; assay type: functional
Bifidobacterium longum = experiment: Antibacterial activity against Bifidobacterium longum HM-846; assay type: functional
Klebsiella pneumoniae = experiment: Antibacterial activity against Klebsiella pneumoniae ATCC 700603; assay type: functional
Acinetobacter baumannii = experiment: Antibacterial activity against Acinetobacter baumannii ATCC 17961; assay type: functional
Pseudomonas aeruginosa = experiment: Antibacterial activity against Pseudomonas aeruginosa ATCC 27853; assay type: functional
Klebsiella aerogenes = experiment: Antibacterial activity against Enterobacter aerogenes ATCC 35029; assay type: functional
Escherichia coli = experiment: Antibacterial activity against Escherichia coli ATCC 25922; assay type: functional
Staphylococcus aureus [4] = experiment: Antibacterial activity against vancomycin-resistant Staphylococcus aureus VRS1 clinical isolate; assay type: functional
Enterococcus faecalis = experiment: Antibacterial activity against Enterococcus faecalis ATCC 29212; assay type: functional
Enterococcus faecium [5] = experiment: Antibacterial activity against vancomycin-resistant Enterococcus faecium 106 clinical isolate; assay type: functional
Clostridioides difficile [6] = experiment: Antibacterial activity against Clostridium difficile ATTC43255 assessed as spore germination inhibition at 45 uM incubated for 60 mins by spectrometry relative to control; assay type: functional; conditions: ATTC43255, 1 h
Clostridioides difficile [7] = experiment: Antibacterial activity against Clostridium difficile ATTC43255 assessed as spore germination inhibition incubated for 60 mins by spectrometry; assay type: functional, organism-based; conditions: ATTC43255, 1 h
[8] = Cytotoxicity against human HepG2 cells incubated for 24 hrs by XTT assay; assay type: toxicity, cell-based; conditions: read-out: LD50
Clostridioides difficile [9] = experiment: Antibacterial activity against fidaxomicin-resistant Clostridium difficile RMA23691 clinical isolate; assay type: functional
Clostridioides difficile [10] = experiment: Antibacterial activity against Clostridium difficile RMA26675; assay type: functional
Eubacterium sp. = experiment: Antibacterial activity against Eubacterium sp. HM-178; assay type: functional
Lactobacillus gasseri = experiment: Antibacterial activity against Lactobacillus gasseri HM-644; assay type: functional
Staphylococcus aureus [11] = experiment: Antibacterial activity against Staphylococcus aureus ATCC 29213; assay type: functional
Staphylococcus aureus [12] = experiment: Antibacterial activity against Staphylococcus aureus NRS100; assay type: functional
Staphylococcus aureus [13] = experiment: Antibacterial activity against Staphylococcus aureus NRS119; assay type: functional
[14] = tested on: Staphylococcus epidermidis; experiment: Antibacterial activity against Staphylococcus epidermidis ATCC 35547; assay type: functional
[15] = tested on: Staphylococcus haemolyticus; experiment: Antibacterial activity against Staphylococcus haemolyticus ATCC 29970; assay type: functional
Bacillus cereus = experiment: Antibacterial activity against Bacillus cereus ATCC 13061; assay type: functional
Enterococcus faecium [16] = experiment: Antibacterial activity against vancomycin-susceptible Enterococcus faecium 119-39A; assay type: functional
[17] = Binding affinity to bacterial prepro-SleC assessed as dissociation constant by MST assay; parameters: species or system Bacteria
[18] = Binding affinity to bacterial pro-SleC assessed as dissociation constant by MST assay; parameters: species or system Bacteria
Bacteria [19] = experiment: Binding affinity to bacterial pdaA assessed as dissociation constant by MST assay
[20] = Binding affinity to bacterial GerS assessed as dissociation constant by MST assay; parameters: species or system Bacteria
Bacteria [21] = experiment: Binding affinity to bacterial cwID assessed as dissociation constant by MST assay
[22] = Binding affinity to bacterial CspA assessed as dissociation constant by MST assay; parameters: species or system Bacteria
[23] = Binding affinity to bacterial CspB assessed as dissociation constant by MST assay; parameters: species or system Bacteria
[24] = Binding affinity to N-terminal His-tagged full-length Clostridium difficile SleC extracted from Escherichia coli LOBSTR-RIL assessed as dissociation constant by MST assay; parameters: species or system Clostridioides difficile
Clostridioides difficile [25] = experiment: Antibacterial activity against Clostridium difficile ATTC43255 incubated for 24 to 48 hrs anaerobically by colony counting method; assay type: functional; conditions: time 24-48 hrs
[26] = Selectivity index, ratio of LD50 for cytotoxicity against human HepG2 cells to IC50 for antibacterial activity against Clostridium difficile ATTC43255 assessed as spore germination inhibition; assay type: toxicity, cell-based; conditions: read-out: Ratio LD50/IC50

## CN[C@H](CC(C)C)C(=O)N[C@H]1C(=O)N[C@@H](CC(N)=O)C(=O)N[C@H]2C(=O)N[C@H]3C(=O)N[C@H](C(=O)N[C@H](C(=O)O)c4cc(O)cc(O)c4-c4cc3ccc4O)[C@H](O)c3ccc(c(Cl)c3)Oc3cc2cc(c3O[C@@H]2O[C@H](CO)[C@@H](O)[C@H](O)[C@H]2O[C@H]2C[C@](C)(N)[C@H](O)[C@H](C)O2)Oc2ccc(cc2Cl)[C@H]1O [VANCOMYCIN]
Clostridioides difficile [1]
  MIC: 0.25 µg/mL (≈ 0.173 µM)
Clostridioides difficile [2]
  MIC: 0.5 µg/mL (≈ 0.345 µM)
Bacteroides fragilis
  MIC: 16 µg/mL (≈ 11 µM)
Veillonella
  MIC: > 32 µg/mL
Fusobacterium nucleatum
  MIC: 0.25 µg/mL (≈ 0.173 µM)
[3]
  MIC: > 32 µg/mL
Bifidobacterium longum
  MIC: 0.25 µg/mL (≈ 0.173 µM)
Klebsiella pneumoniae
  MIC: > 128 µg/mL
Acinetobacter baumannii
  MIC: > 128 µg/mL
Pseudomonas aeruginosa
  MIC: > 128 µg/mL
Klebsiella aerogenes
  MIC: > 128 µg/mL
Escherichia coli
  MIC: > 128 µg/mL
Staphylococcus aureus [4]
  MIC: 64 µg/mL (≈ 44.2 µM)
Enterococcus faecalis
  MIC: 2 µg/mL (≈ 1.38 µM)
Enterococcus faecium [5]
  MIC: > 16 µg/mL

## Oc1ccc(-c2nc(-c3ccc(OC4CCCC4)cc3)no2)cc1
Clostridioides difficile [6]
  inhibition at 45 µM: 26%
Clostridioides difficile [7]
  pIC50: 4.13
[8]
  CC50 at 24 h: 22 µg/mL (≈ 68.2 µM)
Clostridioides difficile [1]
  MIC: 2 µg/mL (≈ 6.2 µM)
Clostridioides difficile [9]
  MIC: 4 µg/mL (≈ 12.4 µM)
Clostridioides difficile [10]
  MIC: 4 µg/mL (≈ 12.4 µM)
Clostridioides difficile [2]
  MIC: 4 µg/mL (≈ 12.4 µM)
Bacteroides fragilis
  MIC: 2 µg/mL (≈ 6.2 µM)
Eubacterium sp.
  MIC: 0.5 µg/mL (≈ 1.55 µM)
Veillonella
  MIC: > 128 µg/mL
Fusobacterium nucleatum
  MIC: 2 µg/mL (≈ 6.2 µM)
[3]
  MIC: > 128 µg/mL
Lactobacillus gasseri
  MIC: > 128 µg/mL
Bifidobacterium longum
  MIC: 1 µg/mL (≈ 3.1 µM)
Klebsiella pneumoniae
  MIC: > 128 µg/mL
Acinetobacter baumannii
  MIC: > 128 µg/mL
Pseudomonas aeruginosa
  MIC: > 128 µg/mL
Klebsiella aerogenes
  MIC: > 128 µg/mL
Escherichia coli
  MIC: > 128 µg/mL
Staphylococcus aureus [11]
  MIC: 2 µg/mL (≈ 6.2 µM)
Staphylococcus aureus [12]
  MIC: 2 µg/mL (≈ 6.2 µM)
Staphylococcus aureus [13]
  MIC: 2 µg/mL (≈ 6.2 µM)
Staphylococcus aureus [4]
  MIC: 2 µg/mL (≈ 6.2 µM)
[14]
  MIC: 2 µg/mL (≈ 6.2 µM)
[15]
  MIC: 2 µg/mL (≈ 6.2 µM)
Bacillus cereus
  MIC: 2 µg/mL (≈ 6.2 µM)
Enterococcus faecalis
  MIC: 4 µg/mL (≈ 12.4 µM)
Enterococcus faecium [16]
  MIC: 2 µg/mL (≈ 6.2 µM)
Enterococcus faecium [5]
  MIC: 2 µg/mL (≈ 6.2 µM)
[17]
  pKd: 5.37
[18]
  pKd: 4.04
Bacteria [19]
  Activity: inactive
[20]
  pKd: < 3.70
Bacteria [21]
  Activity: inactive
[22]
  pKd: < 3.70
[23]
  pKd: 4.12
[24]
  pKd: < 3.70

## Cl.NCc1ccc(-c2nc(-c3ccc(Oc4ccc(F)cc4)cc3)no2)cc1
Clostridioides difficile [6]
  inhibition at 45 µM: 60%
Clostridioides difficile [25]
  MIC: 16 µg/mL
Clostridioides difficile [7]
  pIC50: 4.35
[8]
  CC50 at 24 h: 38 µg/mL
[26]
  selectivity ratio: 2

## CCc1c(Cl)c(O)c(Cl)c(O)c1C(=O)O[C@H]1[C@H](O)[C@H](OC)[C@H](OC/C2=C\C=C\C[C@H](O)/C(C)=C/[C@H](CC)[C@@H](O[C@@H]3OC(C)(C)[C@@H](OC(=O)C(C)C)[C@H](O)[C@@H]3O)/C(C)=C/C(C)=C/C[C@@H]([C@@H](C)O)OC2=O)O[C@@H]1C [FIDAXOMICIN]
Clostridioides difficile [1]
  MIC: 0.125 µg/mL (≈ 0.118 µM)
Clostridioides difficile [9]
  MIC: 4 µg/mL (≈ 3.78 µM)
Clostridioides difficile [10]
  MIC: 4 µg/mL (≈ 3.78 µM)
Clostridioides difficile [2]
  MIC: > 8 µg/mL
Bacteroides fragilis
  MIC: > 32 µg/mL
Eubacterium sp.
  MIC: 16 µg/mL (≈ 15.1 µM)
Veillonella
  MIC: 8 µg/mL (≈ 7.56 µM)
Fusobacterium nucleatum
  MIC: < 0.06 µg/mL
[3]
  MIC: > 32 µg/mL
Lactobacillus gasseri
  MIC: 2 µg/mL (≈ 1.89 µM)
Bifidobacterium longum
  MIC: 0.01 µg/mL (≈ 0.00945 µM)
Klebsiella pneumoniae
  MIC: > 128 µg/mL
Acinetobacter baumannii
  MIC: > 128 µg/mL
Pseudomonas aeruginosa
  MIC: > 128 µg/mL
Klebsiella aerogenes
  MIC: > 128 µg/mL
Escherichia coli
  MIC: > 128 µg/mL
Staphylococcus aureus [11]
  MIC: 16 µg/mL (≈ 15.1 µM)
Staphylococcus aureus [12]
  MIC: 16 µg/mL (≈ 15.1 µM)
Staphylococcus aureus [13]
  MIC: 2 µg/mL (≈ 1.89 µM)
Staphylococcus aureus [4]
  MIC: 64 µg/mL (≈ 60.5 µM)
[14]
  MIC: 4 µg/mL (≈ 3.78 µM)
[15]
  MIC: 16 µg/mL (≈ 15.1 µM)
Bacillus cereus
  MIC: 16 µg/mL (≈ 15.1 µM)
Enterococcus faecalis
  MIC: > 16 µg/mL
Enterococcus faecium [16]
  MIC: > 16 µg/mL
Enterococcus faecium [5]
  MIC: > 16 µg/mL

## Cl.NCc1ccc(-c2nc(-c3ccc(I)cc3)no2)cc1
Clostridioides difficile [6]
  inhibition at 45 µM: 51%
Clostridioides difficile [25]
  MIC: 8 µg/mL
Clostridioides difficile [7]
  pIC50: 4.43
[8]
  CC50 at 24 h: 39 µg/mL
[26]
  selectivity ratio: 3

## FC(F)(F)c1ccc(Oc2ccc(-c3noc(-c4cn[nH]n4)n3)cc2)cc1
Clostridioides difficile [6]
  inhibition at 45 µM: < 10%

## CCOc1ccc(-c2noc(-c3ccc(O)cc3)n2)cc1
Clostridioides difficile [6]
  inhibition at 45 µM: < 10%

## O=C(Nc1c[nH]nc1-c1nc(-c2ccc(Oc3ccc(C(F)(F)F)cc3)cc2)no1)c1ccccn1
Clostridioides difficile [6]
  inhibition at 45 µM: < 10%

## O=C(O)c1cccc(-c2noc(-c3ccccc3F)n2)c1
Clostridioides difficile [6]
  inhibition at 45 µM: < 10%

## N#Cc1ccc(Oc2ccc(-c3noc(-c4ccc(O)cc4)n3)cc2)cc1
Clostridioides difficile [6]
  inhibition at 45 µM: < 10%

## CC(C)Oc1ccc(-c2nc(-c3cccc4c3CC[C@@H]4NCCO)no2)cc1C#N.Cl [OZANIMOD HYDROCHLORIDE]
Clostridioides difficile [6]
  inhibition at 45 µM: 62%
Clostridioides difficile [25]
  MIC: 64 µg/mL
Clostridioides difficile [7]
  pIC50: 4.41
[8]
  CC50 at 24 h: 46 µg/mL
[26]
  selectivity ratio: 3

## N#Cc1ccc(-c2nc(-c3ccc(OC4CCCC4)cc3)no2)cc1
Clostridioides difficile [6]
  inhibition at 45 µM: < 10%

## FC(F)(F)c1ccc(Oc2ccc(-c3noc(-c4n[nH]cc4NC4CCCC4)n3)cc2)cc1
Clostridioides difficile [6]
  inhibition at 45 µM: < 10%

## Nc1cc(-c2nc(-c3ccc(Oc4ccc(C(F)(F)F)cc4)cc3)no2)cnc1O
Clostridioides difficile [6]
  inhibition at 45 µM: < 10%

## CCC(C)Nc1c[nH]nc1-c1nc(-c2ccc(Oc3ccc(C(F)(F)F)cc3)cc2)no1 (stereo not drawn)
Clostridioides difficile [6]
  inhibition at 45 µM: < 10%

## O=[N+]([O-])c1ccccc1Oc1ccc(-c2noc(-c3ccc(O)cc3)n2)cc1
Clostridioides difficile [6]
  inhibition at 45 µM: 21%

## N#Cc1ccc(-c2nc(-c3ccc(Oc4ccc(F)cc4)cc3)no2)cc1
Clostridioides difficile [6]
  inhibition at 45 µM: < 10%

## Oc1ccc(-c2nc(N3CCN(c4cccc(Cl)c4)CC3)no2)cc1
Clostridioides difficile [6]
  inhibition at 45 µM: < 10%

## O=[N+]([O-])c1c[nH]c(-c2nc(-c3ccc(OC4CCCC4)cc3)no2)n1
Clostridioides difficile [6]
  inhibition at 45 µM: < 10%

## NCc1ccc(-c2nc(-c3ccc(Oc4ccc(F)c(F)c4)cc3)no2)cc1
Clostridioides difficile [6]
  inhibition at 45 µM: 44%

## O=[N+]([O-])c1cn(CCO)c(-c2nc(-c3ccc(OC4CCCC4)cc3)no2)n1
Clostridioides difficile [6]
  inhibition at 45 µM: < 10%
